# Test results reported in patent US6472369B1, “Anticancer compounds and methods” (The Regents of the University of Michigan, priority 1996, dated 2002).
# Key:
# [1] = system: metastatic DU-145 prostate cancer cells; experiment: SU-ECM invasion assay, DU-145 prostate cancer cells; format: cell-based, human; details: for inhibition of serum-induced invasion of SU-ECM: DU-145, 10% serum, FIG. 6A; for inhibition of PHSRN-induced invasion of SU-ECM: DU-145, serum-free medium, 100 ng per ml PHSRN, FIG. 6B
# [2] = system: normal human prostate epithelial cells; experiment: SU-ECM invasion assay, normal human prostate epithelial cells; format: cell-based; details: 10% FCS, 100 ng per ml PHSRN, FIG. 6B
# Protocol: Adult Strongylocentrotus purpuratus sea urchins were obtained from Pacific BioMarine, and their embryos were cultured to the early pluteus stage in artificial sea water at 15° C. SU-ECM were prepared from them by treatment with nonionic detergent and strerilized by dilution in the appropriate media. […]
# Invasion assays were coded and scored blindly by microscopic examination under phase contrast at 200- and 400-fold magnification. Each cell contacting an SU-ECM was scored for its position relative to the exterior or interior surfaces. […] The minimum viability of the cells in each assay was always ascertained at the time of assay by determining the fraction of spread, adherent cells on the bottom of each well scored.
# An invasion frequency is defined as the fraction of cells in contact with basement membranes which were located in their interiors at the time of assay. […] Invasion frequencies were determined multiple times for each cell type assayed. For each type of cell assayed the mean and standard deviation of the invasion frequencies were calculated. […]
# [3] = system: rat metastatic prostate carcinoma MatLyLu (MLL) cells; experiment: SU-ECM invasion assay, rat MatLyLu prostate carcinoma cells; format: cell-based; details: for inhibition of PHSRN-induced invasion of SU-ECM: serum free media, 100 ng per ml PHSRN, FIG. 7B
# Protocol: Adult Strongylocentrotus purpuratus sea urchins were obtained from Pacific BioMarine, and their embryos were cultured to the early pluteus stage in artificial sea water at 15° C. SU-ECM were prepared from them by treatment with nonionic detergent and strerilized by dilution in the appropriate media.
# Cells were harvested by rinsing in Hanks' balanced salt solution, followed by brief treatment with 0.25% trypsin, 0.02% EDTA, and pelleting and resuspension in the appropriate medium with or without 5% FCS at a density of about 50,000 cells per ml. When appropriate, purified bovine plasma fibronectin (Sigma), purified 120 kDa chymotryptic fragment (Gibco BRL), PHSRN (SEQ ID NO:1) or PHSCN (SEQ ID NO:86) peptides (synthesized at the Biomedical Research Core Facilities of the University of Michigan), or GRGDSP (SEQ ID NO:83) or GRGESP (SEQ ID NO:84) peptides (Gibco BRL) were added to the resuspended cells prior to placement of the cells on SU-ECM. In each well of a plate used for an invasion assay, SU-ECM were placed in 0.5 ml of the appropriate medium, and 0.5 ml of the resuspended cells dropped on their exterior surfaces. Invasion assays were incubated 1 to 16 hours prior to assay. If some circumstances, invasion assays were fixed in phosphate-buffered saline (PBS) with 2% formaldehyde for 5 minutes at room temperature, then rinsed into PBS.
# Invasion assays were coded and scored blindly by microscopic examination under phase contrast at 200- and 400-fold magnification. Each cell contacting an SU-ECM was scored for its position relative to the exterior or interior surfaces. A cell was judged to have invaded if it was located on an interior surface below the focal plane passing through the upper surface of the SU-ECM, but above the focal plane passing through its lower surface. The minimum viability of the cells in each assay was always ascertained at the time of assay by determining the fraction of spread, adherent cells on the bottom of each well scored.
# An invasion frequency is defined as the fraction of cells in contact with basement membranes which were located in their interiors at the time of assay. Thus, an invasion frequency of 1 denotes invasion by 100% of the cells in contact with basement membranes. Invasion frequencies were determined multiple times for each cell type assayed. For each type of cell assayed the mean and standard deviation of the invasion frequencies were calculated.
# The result of adding a varying concentration of the PHSCN (SEQ ID NO:86) peptide to PHSRN-induced (SEQ ID NO:1) MLL cells in serum free media is shown in FIG. 7B, where 100 ng per ml of PHSRN (SEQ ID NO:1) was used to induce invasion.
# The procedure described in Example 10, was employed using SU-ECM substrates in 10% FCS and PHS(hC)N (SEQ ID NO:85) instead of PHSCN (SEQ ID NO:86). The result of adding varying concentrations of the PHS(hC)N (SEQ ID NO:85) peptide to serum-induced MLL cells indicates this peptide also has an inhibitory affect on cell invasion (see FIG. 8).
# [4] = system: MatLyLu (MLL) tumors; experiment: MLL prostate tumor growth and metastasis in rats, treatment begun with cell injection (Example 12); format: in vivo, Copenhagen rats
# Protocol: In the first part of this example, four Copenhagen rats were injected with 500,000 MatLyLu (MLL) cells subcutaneously in the thigh. Two of these rats also received 1 mg of the PHSCN (SEQ ID NO:86) peptide along with the injected MLL cells, and thereafter received 1 mg of the PHSCN (SEQ ID NO:86) peptide injected in their tail vein three time per week for two weeks. The other two injected rats were left untreated. Tumor sizes were measured with calipers on day 14, and the tumors in the untreated rats were removed. […] It is possible that the ability of the PHSCN (SEQ ID NO:86) peptide to slow tumor growth is due to its inhibition of tumor invasion by normal endothelial cells, an anti-angiogenic effect.
# Two weeks after the size of the tumors were measured, the rats were sacrificed and the mean number of lung metastases was determined at 10-fold magnification. The mean number of lung metastases in the untreated mice (MLL only) was nearly 35 in spite of the fact that the initial prostate tumors had been removed when their size was measured. The mean number of lung metastases in the treated mice (MLL +PHSCN (SEQ ID NO:86)) was less than 5, even though the initial prostate tumors were never removed because they were too small. […] In this manner, the PHSCN (SEQ ID NO:86) peptide provides effective in vivo therapy for cancer by preventing the lethal effects of tumor cell growth and metastasis.
substance,measurement,setting,value
Pro-His-Ser-Cys-Asn (PHSCN),inhibition of serum-induced invasion of SU-ECM,[1]; relatively high concentrations,complete inhibition
same,inhibition of serum-induced invasion of SU-ECM,[1]; relatively low concentrations,substantial inhibitory affect
same,inhibition of PHSRN-induced invasion of SU-ECM,[1]; higher concentrations,almost complete inhibition
same,inhibition of PHSRN-induced invasion of SU-ECM,[1]; low concentrations,substantial inhibitory affect
same,inhibition of PHSRN-induced invasion of SU-ECM,[2]; higher concentrations,almost complete inhibition
same,inhibition of PHSRN-induced invasion of SU-ECM,[2]; low concentrations,substantial inhibitory affect
same,inhibition of PHSRN-induced invasion of SU-ECM,[3]; higher concentrations,almost complete inhibition
same,inhibition of PHSRN-induced invasion of SU-ECM,[3]; low concentrations,substantial inhibitory affect
same,inhibition of serum-induced invasion of SU-ECM,"[3]; serum-induced, I microgram per ml peptide, FIG. 7A",complete inhibition of invasion
same,"growth of injected MLL tumors (tumor size, calipers)","[4]; day 14, 1 mg with cells, then 1 mg tail vein three times per week for two weeks, FIG. 9A",significantly slows the growth
same,mean number of lung metastases,"[4]; two weeks after tumor measurement, 10-fold magnification, primary tumors not removed, FIG. 9B",less than 5
